From US10106526B2, “Inhibitors of cyclin-dependent kinase 7 (CDK7)” (SYROS PHARMACEUTICALS, INC., priority 2014, dated 2018)
Where a name gives a salt, the structure may show the parent alone.

Experiments:
Jurkat cells = test: Inhibition of proliferation of Jurkat cells (CellTiter-Glo, 72 hour); assay type: cell-based, human; conditions: 10 μM to 316 pM
Description: Jurkat cells are a cell line established from a human T cell leukemia. Representative compounds of the invention were tested at different concentrations (from 10 μM to 316 pM; 0.5 log serial dilutions) for their ability to inhibit the proliferation of Jurkat cells. Known CDK inhibitors flavopiridol and triptolide were used as positive controls. Cells were grown in RPMI 1640+10% FBS+1% Glutamax. The cells were supplemented with FBS (Life Technologies) and 100 U·mL^− penicillin, 100 μg·mL^− streptomycin (Invitrogen) and cultured at 37° C. in a humidified chamber in the presence of 5% CO2. Proliferation assays were conducted over a 72 hour time period. CellTiter-Glo® (Promega Corporation, Madison, Wis. USA) was used to assess the anti-proliferative effects of the compounds following manufacturer's directions and utilizing the reagents supplied with the CellTiter-Glo® kit. In this table, “A” represents an IC50 of less than 500 nM; “B” an IC50 of between 500 nM and 5 μM; and “C” an IC50 of greater than 5 μM.

CDK7 = target: T1, CDK7 (Homo sapiens, UniProt P50613); test: CDK7 kinase activity, Adapta kinase assay (Life Technologies); assay type: biochemical; conditions: Adapta kinase assay at Life Technologies; 10 μM down to 0.514 nM, 3-fold serial dilutions; read-out: CDK7 Inhibition (IC50)
T1 construct: purchased Life Technologies (Adapta kinase assay service)
T1 sequence (P50613 whole entry): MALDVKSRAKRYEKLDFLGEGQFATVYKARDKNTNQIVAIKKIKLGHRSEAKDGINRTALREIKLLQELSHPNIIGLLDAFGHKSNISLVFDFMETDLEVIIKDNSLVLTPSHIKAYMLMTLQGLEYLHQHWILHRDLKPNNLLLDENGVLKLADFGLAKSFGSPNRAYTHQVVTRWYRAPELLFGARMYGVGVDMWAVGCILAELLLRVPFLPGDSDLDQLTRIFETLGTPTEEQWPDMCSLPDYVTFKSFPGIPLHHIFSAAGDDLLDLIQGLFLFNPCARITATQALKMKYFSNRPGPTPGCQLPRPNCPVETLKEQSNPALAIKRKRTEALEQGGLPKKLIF
T1 sequence (P51946 whole entry partner): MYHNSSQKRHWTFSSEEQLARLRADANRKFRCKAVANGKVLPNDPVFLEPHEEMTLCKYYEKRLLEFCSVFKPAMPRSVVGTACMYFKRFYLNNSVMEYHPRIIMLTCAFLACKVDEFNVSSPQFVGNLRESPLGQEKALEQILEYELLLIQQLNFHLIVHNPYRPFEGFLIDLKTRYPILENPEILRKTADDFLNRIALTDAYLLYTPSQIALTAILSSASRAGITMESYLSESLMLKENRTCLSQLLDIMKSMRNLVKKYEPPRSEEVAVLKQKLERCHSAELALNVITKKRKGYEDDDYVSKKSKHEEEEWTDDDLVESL
T1 sequence (P51948 whole entry partner): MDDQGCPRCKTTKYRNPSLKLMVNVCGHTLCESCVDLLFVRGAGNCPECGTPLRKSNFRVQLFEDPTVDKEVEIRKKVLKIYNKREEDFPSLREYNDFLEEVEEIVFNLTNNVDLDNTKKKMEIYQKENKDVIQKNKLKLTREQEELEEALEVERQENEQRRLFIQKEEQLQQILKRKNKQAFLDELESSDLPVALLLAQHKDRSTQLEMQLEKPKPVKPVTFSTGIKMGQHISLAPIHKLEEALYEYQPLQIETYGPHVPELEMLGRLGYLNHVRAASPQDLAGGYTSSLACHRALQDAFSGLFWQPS
Description: Compounds of the invention were assayed for CDK7 activity at Life Technologies™ (Grand Island, N.Y.) using their commercially available Adapta® kinase assay services. Compounds were tested at concentrations ranging from 10 μM down to 0.514 nM in a series of 3-fold serial dilutions. Details of these assays, including substrates used, are available on the Life Technologies web site (http://www.lifetechnologies.com/us/en/home/life-science/drug-discovery/target-and-lead-identification-and-validation/kinasebiology/kinase-activity-assays.html).

A673 cells = test: Inhibition of proliferation of A673 cells (CyQUANT, 72 hour); assay type: cell-based, human; conditions: Homo sapiens, 72 hour proliferation
Description: A673 cells are a cell line derived from human muscle Ewing's sarcoma. Representative compounds of the invention were tested at different concentrations (from 4 μM to 126.4 pM; 0.5 log serial dilutions) for their ability to inhibit the proliferation of A673 cells. Known CDK inhibitors flavopiridol and triptolide were used as positive controls. Cells were grown in Dulbecco's Modified Eagle's Medium, +10% FBS+1 mM Sodium Pyruvate. The cells were cultured at 37° C. in a humidified chamber in the presence of 5% CO2. Proliferation assays were conducted over a 72 hour time period. CyQUANT® (Life Technologies, Chicago, Ill. USA) was used to assess the anti-proliferative effects of the compounds following manufacturer's directions and utilizing the reagents supplied with the CyQUANT® kit. In this table, “A” represents an IC50 of less than 500 nM; “B” an IC50 of between 500 nM and 5 μM; and “C” an IC50 of greater than 5 μM.

SMILES: CN(C)CCCC(=O)Nc1ccc(C(=O)Nc2cccc(Nc3ncc(Cl)c(-c4c[nH]c5ccccc45)n3)c2)nc1 [compound 1023]
- IC50 (Jurkat cells): 500 to 5000 nM

SMILES: C=CC(=O)N1CCN(C(=O)N[C@H]2CCC[C@@H](Nc3ncc(Cl)c(-c4c[nH]c5ccccc45)n3)C2)CC1 [Compound 201, 4-Acryloyl-N-((1S,3R)-3-(5-chloro-4-(1H-indol-3-yl)pyrimidin-2-ylamino)cyclohexyl)piperazine-1-carboxamide]
- IC50 (CDK7): < 100 nM
- IC50 (Jurkat cells; Homo sapiens): 500 to 5000 nM

SMILES: Nc1ccc(C(=O)Nc2cccc(Nc3ncc(Cl)c(-c4c[nH]c5ccccc45)n3)c2)cn1 [Compound 1024, 6-amino-N-(3-(5-chloro-4-(1H-indol-3-yl)pyrimidin-2-ylamino)phenyl)nicotinamide]
- IC50 (Jurkat cells; Homo sapiens): 500 to 5000 nM

SMILES: C=CC(=O)N1CCN(C[C@@H]2CCC[C@H](Nc3ncc(Cl)c(-c4c[nH]c5ccccc45)n3)C2)CC1 [Compound 204, 1-(4-(((1R,3S)-3-((5-chloro-4-(1H-indol-3-yl)pyrimidin-2-yl)amino)cyclohexyl)methyl)-piperazin-1-yl)prop-2-en-1-One]
- IC50 (CDK7): < 100 nM
- IC50 (Jurkat cells; Homo sapiens): < 500 nM

SMILES: CN(C)C/C=C/C(=O)N1CC[C@@H](Nc2ncc(Cl)c(-c3c[nH]c4ccccc34)n2)C1 [Compound 176]
- IC50 (CDK7): < 100 nM
- IC50 (Jurkat cells): 500 to 5000 nM

SMILES: CN(C)C/C=C/C(=O)N[C@H]1CC[C@@H](C(=O)Nc2cccc(Nc3ncc(Cl)c(-c4c[nH]c5ccccc45)n3)c2)CC1 [Compound 101, (Cis,E)-N-(3-(5-chloro-4-(1H-indol-3-yl)pyrimidin-2-ylamino)phenyl)-4-(4-(dimethylamino)but-2-enamido)cyclohexanecarboxamide]
- IC50 (CDK7): < 100 nM
- IC50 (Jurkat cells; Homo sapiens): > 5000 nM

SMILES: C=CC(=O)N(C)[C@H]1CCC[C@@H](Nc2ncc(Cl)c(-c3c[nH]c4ccccc34)n2)C1 [Compound 171, N-((1S,3R)-3-(5-chloro-4-(1H-indol-3-yl)pyrimidin-2-ylamino)cyclohexyl)-N-methylacrylamide]
- IC50 (CDK7): < 100 nM
- IC50 (Jurkat cells; Homo sapiens): < 500 nM

SMILES: CN(C)CC=CC(=O)N1CCCC(CNC2CCC(Nc3ncc(Cl)c(-c4c[nH]c5ccccc45)n3)CC2)C1 (racemic) [compound 194]
- IC50 (CDK7): 100 to 1000 nM
- IC50 (Jurkat cells): < 500 nM

SMILES: CN(C)CCCC(=O)NCCc1cc2ccc(Nc3ncc(Cl)c(-c4c[nH]c5ccccc45)n3)cc2[nH]1 [Compound 1029, N-(2-(6-(5-chloro-4-(1H-indol-3-yl)pyrimidin-2-ylamino)-1H-indol-2-yl)ethyl)-4-(dimethylamino)butanamide]
- IC50 (Jurkat cells; Homo sapiens): 500 to 5000 nM

SMILES: O=C(N[C@H]1CCC[C@@H](Nc2ncc(Cl)c(-c3c[nH]c4ccccc34)n2)C1)C1CCN(C(=O)/C=C/CN2CCOCC2)CC1 [Compound 202-1, N-((1S,3R)-3-((5-chloro-4-(1H-indol-3-yl)pyrimidin-2-yl)amino)cyclohexyl)-1-((E)-4-morpholinobut-2-enoyl)piperidine-4-carboxamide]
- IC50 (CDK7): > 1000 nM
- IC50 (Jurkat cells; Homo sapiens): 500 to 5000 nM

SMILES: CN(C)CC=CC(=O)N1CCC(CNC2CCC(Nc3ncc(Cl)c(-c4c[nH]c5ccccc45)n3)CC2)CC1 (centres unmarked) [compound 197]
- IC50 (CDK7): < 100 nM
- IC50 (Jurkat cells): 500 to 5000 nM

SMILES: C=CC(=O)N1CCCC(CN(C(=O)C=C)[C@H]2CC[C@@H](Nc3ncc(Cl)c(-c4c[nH]c5ccccc45)n3)CC2)C1 (single isomer, unassigned) [191-2]
- IC50 (CDK7): > 1000 nM
- IC50 (Jurkat cells): > 5000 nM

SMILES: CN(C)C/C=C/C(=O)N[C@H]1CC[C@H](C(=O)Nc2cccc(Nc3ncc(Cl)c(-c4c[nH]c5ccccc45)n3)c2)CC1 [Compound 102, (trans,E)-N-(3-(5-chloro-4-(1H-indol-3-yl)pyrimidin-2-ylamino)phenyl)-4-(4-(dimethylamino)but-2-enamido)cyclohexanecarboxamide]
- IC50 (CDK7): < 100 nM
- IC50 (Jurkat cells; Homo sapiens): 500 to 5000 nM

SMILES: C=CC(=O)N1CCC(CN2CCC(Nc3ncc(Cl)c(-c4c[nH]c5ccccc45)n3)CC2)CC1 [Compound 141, 1-(4-((4-((5-chloro-4-(1H-indol-3-yl)pyrimidin-2-yl)amino)piperidin-1-yl)methyl)piperidin-1-yl)prop-2-en-1-One]
- IC50 (CDK7): < 100 nM
- IC50 (Jurkat cells; Homo sapiens): < 500 nM

SMILES: CN(C)C/C=C/C(=O)NCCc1cc2ccc(Nc3ncc(Cl)c(-c4c[nH]c5ccccc45)n3)cc2[nH]1 [Compound 175, (E)-N-(2-(6-(5-chloro-4-(1H-indol-3-yl)pyrimidin-2-ylamino)-1H-indol-2-yl)ethyl)-4-(dimethylamino)but-2-enamide]
- IC50 (CDK7): < 100 nM
- IC50 (Jurkat cells; Homo sapiens): < 500 nM

SMILES: NCCc1cc2ccc(Nc3ncc(Cl)c(-c4c[nH]c5ccccc45)n3)cc2[nH]1 [Compound 1028, 2-(2-aminoethyl)-N-(5-chloro-4-(1H-indol-3-yl)pyrimidin-2-yl)-1H-indol-6-amine.HCl]
- IC50 (Jurkat cells; Homo sapiens): 500 to 5000 nM

SMILES: O=C(Nc1cccc(Nc2ncc(Cl)c(-c3c[nH]c4ccccc34)n2)c1)C1CCCNC1 (centres unmarked) [compound 1003]
- IC50 (CDK7): < 100 nM
- IC50 (Jurkat cells): 500 to 5000 nM

SMILES: CN(C)C/C=C/C(=O)N1CCC[C@H](C(=O)Nc2cccc(Nc3ncc(Cl)c(-c4c[nH]c5ccccc45)n3)c2)C1 [Compound 104, (3S,E)-N-(3-(5-chloro-4-(1H-indol-3-yl)pyrimidin-2-ylamino)phenyl)-1-(4-(dimethylamino)but-2-enoyl)piperidine-3-carboxamide]
- IC50 (CDK7): < 100 nM
- IC50 (Jurkat cells; Homo sapiens): 500 to 5000 nM

SMILES: CN(C)C/C=C/C(=O)NCC(F)(F)C(=O)N[C@H]1CCC[C@@H](Nc2ncc(Cl)c(-c3c[nH]c4ccccc34)n2)C1 [Compound 111, (E)-N-(3-((1S,3R)-3-(5-chloro-4-(1H-indol-3-yl)pyrimidin-2-ylamino)cyclohexlamino)-2,2-difluoro-3-oxopropyl)-4-(dimethylamino)but-2-enamide]
- IC50 (CDK7): < 100 nM
- IC50 (Jurkat cells; Homo sapiens): < 500 nM

SMILES: CN(C)C/C=C/C(=O)NCCCCC(=O)N1CC[C@@H](Nc2ncc(Cl)c(-c3c[nH]c4ccccc34)n2)C1 [Compound 100, (E)-N-(5-((R)-3-(5-chloro-4-(1H-indol-3-yl)pyrimidin-2-ylamino)pyrrolidin-1-yl)-5-oxopentyl)-4-(dimethylamino)but-2-enamide]
- IC50 (CDK7): < 100 nM
- IC50 (Jurkat cells; Homo sapiens): 500 to 5000 nM

SMILES: N#Cc1cnc(N[C@@H]2CCC[C@H](NC(=O)c3ccc(N)cn3)C2)nc1-c1c[nH]c2ccccc12 [Compound 1009, 5-amino-N-((1S,3R)-3-(5-cyano-4-(1H-indol-3-yl)pyrimidin-2-ylamino)cyclohexyl)picolinamide]
- IC50 (CDK7): < 100 nM

SMILES: C=CC(=O)N1CCN(C[C@H]2CCC[C@@H](Nc3ncc(Cl)c(-c4c[nH]c5ccccc45)n3)C2)CC1 [Compound 129, 1-(4-(((1S,3R)-3-((5-chloro-4-(1H-indol-3-yl)pyrimidin-2-yl)amino)cyclohexyl)methyl)piperazin-1-yl)prop-2-en-1-One]
- IC50 (CDK7): < 100 nM
- IC50 (A673 cells): < 500 nM

SMILES: Nc1ccc(C(=O)N[C@H]2CCC[C@@H](Nc3ncc(Cl)c(-c4c[nH]c5ccccc45)n3)C2)cn1 [Compound 1025, 6-amino-N-((1S,3R)-3-(5-chloro-4-(1H-indol-3-yl)pyrimidin-2-ylamino)cyclohexyl)nicotinamide]
- IC50 (Jurkat cells; Homo sapiens): 500 to 5000 nM

SMILES: NCC(F)(F)C(=O)N[C@H]1CCC[C@@H](Nc2ncc(Cl)c(-c3c[nH]c4ccccc34)n2)C1 [Compound 1010, 3-amino-N-((1S,3R)-3-(5-chloro-4-(1H-indol-3-yl)pyrimidin-2-ylamino)cyclohexyl)-2,2-difluoropropanamide]
- IC50 (CDK7): < 100 nM

SMILES: Nc1ccc(C(=O)N[C@H]2CCC[C@@H](Nc3ncc(Cl)c(-c4c[nH]c5ccccc45)n3)C2)nn1 [Compound 1027, 6-amino-N-((1S,3R)-3-(5-chloro-4-(1H-indol-3-yl)pyrimidin-2-ylamino)cyclohexyl)pyridazine-3-carboxamide]
- IC50 (Jurkat cells; Homo sapiens): 500 to 5000 nM

SMILES: Nc1nc(C(=O)N[C@H]2CCC[C@@H](Nc3ncc(Cl)c(-c4c[nH]c5ccccc45)n3)C2)cs1 [Compound 1026, 2-amino-N-((1S,3R)-3-(5-chloro-4-(1H-indol-3-yl)pyrimidin-2-ylamino)cyclohexyl)thiazole-4-carboxamide]
- IC50 (Jurkat cells; Homo sapiens): 500 to 5000 nM

SMILES: C=CC(=O)NC12CC(C(=O)Nc3cccc(Nc4ncc(Cl)c(-c5c[nH]c6ccccc56)n4)c3)(C1)C2 (racemic) [Compound 108, N-(3-{[5-chloro-4-(1H-indol-3-yl)pyrimidin-2-yl]amino}phenyl)-3-(prop-2-enamido)bicyclo[1.1.1]pentane-1-carboxamide]
- IC50 (CDK7): > 1000 nM
